Reference: patent CN113018415A, “一种新的药物组合及其应用” (priority 2021, dated 2021)
Peptide text beside a SMILES is read from it. * marks the point of attachment. Cbz = O=C(OCc1ccccc1)*

Legend:
急性早幼粒白血病细胞NB4 [1] = experiment: MTT cell survival assay, NB4 cells; assay type: cell-based; details: 48 h; for Enhancement of the cancer cell inhibition of arsenic trioxide by a proteasome inhibitor: proteasome inhibitor fixed 40 nM combined with arsenic trioxide 0.1-0.5 μM, Fig. 6; for 细胞存活率 (cell survival rate): arsenic trioxide 0.1-0.5 μM, oprozomib 5-40 nM, alone or combined (fixed 40 nM oprozomib or fixed 0.4 μM arsenic trioxide), Fig. 1, 2
急性早幼粒白血病细胞HL-60 = experiment: MTT cell survival assay, HL-60 cells; assay type: cell-based; details: HL-60, MTT, 48 h; arsenic trioxide 0.4-2 μM, oprozomib 40-200 nM, alone or combined (fixed 160 nM oprozomib or fixed 1.2 μM arsenic trioxide); Fig. 3, 4
慢性髓性白血病细胞K562 = experiment: MTT cell survival assay, K562 cells; assay type: cell-based; details: 48 h, arsenic trioxide 0.4 μM, oprozomib 40 nM, alone or combined, Fig. 5
人肝癌细胞SMMC-7721 = experiment: MTT cell survival assay, SMMC-7721 cells; assay type: cell-based, 人; details: SMMC-7721, MTT, 48 h; arsenic trioxide 0.4 μM, oprozomib 40 nM, alone or combined; Fig. 5
人结直肠腺癌细胞CaCo-2 = experiment: MTT cell survival assay, CaCo-2 cells; assay type: cell-based, 人; details: CaCo-2, MTT, 48 h; arsenic trioxide 0.4 μM, oprozomib 40 nM, alone or combined; Fig. 5
急性早幼粒白血病细胞NB4 [2] = experiment: Mouse APL model: flow cytometry of bone marrow cells for human CD33+; assay type: in vivo, NOD/SCID小鼠; details: moribund mice, bone marrow cultured 24 h; oprozomib 0.43 mg/kg iv, arsenic trioxide 1.53 mg/kg iv; compared with positive control; Fig. 8-12
急性早幼粒白血病细胞NB4 [3] = experiment: Mouse APL model: HE staining of liver and spleen sections; assay type: in vivo, NOD/SCID小鼠; details: oprozomib 0.43 mg/kg iv, arsenic trioxide 1.53 mg/kg iv; compared with control group; Fig. 13
急性早幼粒白血病细胞NB4 [4] = experiment: Mouse APL model: CD33 immunohistochemistry of liver and spleen sections; assay type: in vivo, NOD/SCID小鼠; details: oprozomib 0.43 mg/kg iv, arsenic trioxide 1.53 mg/kg iv; compared with control group; Fig. 14

Row | Compound | Enhancement of the cancer cell inhibition of arsenic trioxide by a proteasome inhibitor (急性早幼粒白血病细胞NB4 [1]) | 细胞存活率 (cell survival rate) (急性早幼粒白血病细胞NB4 [1]) | 细胞存活率 (cell survival rate) (急性早幼粒白血病细胞HL-60) | 细胞存活率 (cell survival rate) (慢性髓性白血病细胞K562) | 细胞存活率 (cell survival rate) (人肝癌细胞SMMC-7721) | 细胞存活率 (cell survival rate) (人结直肠腺癌细胞CaCo-2) | Human CD33+ positive cells in mouse bone marrow (急性早幼粒白血病细胞NB4 [2]) | Infiltrating tumour cells in liver and spleen (HE staining) (急性早幼粒白血病细胞NB4 [3]) | Human CD33 expression in liver and spleen sections (immunohistochemistry) (急性早幼粒白血病细胞NB4 [4])
1 | CC(C)C[C@@H](C=O)NC(=O)[C@H](CC(C)C)NC(=O)[C@H](CC(C)C)NC(=O)OCc1ccccc1 [MG132] (Cbz-Leu-Leu-Leu-aldehyde) | 并不能增加三氧化二砷的癌细胞抑制效果 |  |  |  |  |  |  |  | 
2 | O=[As][As+](=O)[O-] (stereo not drawn) [三氧化二砷] |  | 无明显影响 | 无明显影响 | 无明显影响 | 无明显影响 | 无明显影响 | 有所减少 | 略有减少但不明显 | 略有减少但不明显
3 | COC[C@H](NC(=O)c1cnc(C)s1)C(=O)N[C@@H](COC)C(=O)N[C@@H](Cc1ccccc1)C(=O)[C@@]1(C)CO1 [奥普佐米] | 能极大地提升三氧化二砷的癌细胞抑制效果 | 无明显影响 | 无明显影响 | 无明显影响 | 无明显影响 | 无明显影响 | 有所减少 | 略有减少但不明显 | 略有减少但不明显
